# Assays:
# [1] = molecular target: T1, Poly [ADP-ribose] polymerase 1 (Homo sapiens, UniProt P09874)
# [2] = molecular target: T1, Poly [ADP-ribose] polymerase 1; remark: listed apart in the source
# Description: Inhibition of PARP1 in human C41 cells
# [3] = Cmax in CD1 mouse at 10 mg/kg, po; format: ADME, organism-based; parameters: dose 10 mg/kg, route oral; conditions: in vivo
# [4] = Half life in CD1 mouse at 3 mg/kg, iv; format: ADME, organism-based; parameters: dose 3 mg/kg, route intravenous; conditions: in vivo
# [5] = Oral bioavailability in CD1 mouse at 10 mg/kg; format: ADME, organism-based; conditions: in vivo
# [6] = AUC in CD1 mouse at 10 mg/kg, po; format: ADME, organism-based; parameters: dose 10 mg/kg, route oral; conditions: plasma
# [7] = Volume of distribution at steady state in rat at 4.1 mg/kg; format: ADME, organism-based; parameters: dose 4.1 mg/kg; conditions: in vivo, read-out: Vdss
# [8] = Oral bioavailability in rat at 4.1 mg/kg; format: ADME, organism-based; conditions: in vivo
# [9] = Solubility in water at pH 7.8; format: physicochemical
# [10] = Half life in monkey at 4.1 mg/kg, iv; format: ADME, organism-based, Macaca mulatta; parameters: dose 4.1 mg/kg, route intravenous; conditions: rhesus monkey, in vivo
# [11] = Half life in dog at 4.1 mg/kg, iv; format: ADME, organism-based, Canis lupus familiaris; parameters: dose 4.1 mg/kg, route intravenous; conditions: in vivo
# [12] = Half life in CD1 mouse at 3 mg/kg, iv; conditions: in vivo
# [13] = Cmax in dog at 4.1 mg/kg, po; format: ADME, organism-based, Canis lupus familiaris; parameters: dose 4.1 mg/kg, route oral; conditions: in vivo
# [14] = Protein binding in human plasma; format: ADME, cell-free; conditions: read-out: PPB (converted)
# [15] = Volume of distribution at steady state in CD1 mouse at 10 mg/kg; format: ADME, organism-based; parameters: dose 10 mg/kg; conditions: in vivo, read-out: Vdss
# [16] = Clearance in CD1 mouse at 10 mg/kg; format: ADME, organism-based; parameters: dose 10 mg/kg; conditions: in vivo
# [17] = Clearance in monkey at 4.1 mg/kg; format: ADME, organism-based, Macaca mulatta; parameters: dose 4.1 mg/kg; conditions: rhesus monkey, in vivo
# [18] = molecular target: Poly [ADP-ribose] polymerase 2 (Homo sapiens, UniProt Q9UGN5); assay: Inhibition of PARP2
# Poly [ADP-ribose] polymerase 2, sequence (Q9UGN5 whole entry): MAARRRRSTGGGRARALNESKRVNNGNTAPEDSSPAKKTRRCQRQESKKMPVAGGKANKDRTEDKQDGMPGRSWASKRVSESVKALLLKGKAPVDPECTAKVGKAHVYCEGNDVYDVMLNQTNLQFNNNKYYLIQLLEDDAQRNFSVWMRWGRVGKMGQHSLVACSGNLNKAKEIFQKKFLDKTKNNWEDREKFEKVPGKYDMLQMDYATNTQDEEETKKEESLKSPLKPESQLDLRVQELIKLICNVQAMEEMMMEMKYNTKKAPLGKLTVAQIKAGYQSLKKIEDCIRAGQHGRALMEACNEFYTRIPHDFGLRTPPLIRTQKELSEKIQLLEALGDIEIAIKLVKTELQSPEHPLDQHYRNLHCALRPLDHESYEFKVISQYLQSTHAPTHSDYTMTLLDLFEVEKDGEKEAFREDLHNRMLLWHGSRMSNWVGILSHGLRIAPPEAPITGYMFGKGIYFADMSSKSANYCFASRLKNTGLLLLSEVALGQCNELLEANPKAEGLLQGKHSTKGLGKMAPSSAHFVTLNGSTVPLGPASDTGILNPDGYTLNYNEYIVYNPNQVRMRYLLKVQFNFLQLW
# [19] = AUC in dog at 4.1 mg/kg, po; format: ADME, organism-based, Canis lupus familiaris; parameters: dose 4.1 mg/kg, route oral; conditions: plasma
# [20] = Clearance in dog at 4.1 mg/kg; format: ADME, organism-based, Canis lupus familiaris; parameters: dose 4.1 mg/kg; conditions: in vivo
# [21] = AUC in monkey at 4.1 mg/kg, po; format: ADME, organism-based, Macaca mulatta; parameters: dose 4.1 mg/kg, route oral; conditions: rhesus monkey, plasma
# [22] = Volume of distribution at steady state in monkey at 4.1 mg/kg; format: ADME, organism-based, Macaca mulatta; parameters: dose 4.1 mg/kg; conditions: rhesus monkey, in vivo, read-out: Vdss
# [23] = Volume of distribution at steady state in dog at 4.1 mg/kg; format: ADME, organism-based, Canis lupus familiaris; parameters: dose 4.1 mg/kg; conditions: in vivo, read-out: Vdss
# [24] = AUC in rat at 4.1 mg/kg, po; format: ADME, organism-based; parameters: dose 4.1 mg/kg, route oral; conditions: plasma
# [25] = Half life in rat at 4.1 mg/kg, iv; format: ADME, organism-based; parameters: dose 4.1 mg/kg, route intravenous; conditions: in vivo
# [26] = Cmax in monkey at 4.1 mg/kg, po; format: ADME, organism-based, Macaca mulatta; parameters: dose 4.1 mg/kg, route oral; conditions: rhesus monkey, in vivo
# [27] = Cmax in rat at 4.1 mg/kg, po; format: ADME, organism-based; parameters: dose 4.1 mg/kg, route oral; conditions: in vivo
# [28] = Oral bioavailability in dog at 4.1 mg/kg; format: ADME, organism-based, Canis lupus familiaris; conditions: in vivo
# [29] = Clearance in rat at 4.1 mg/kg; format: ADME, organism-based; parameters: dose 4.1 mg/kg; conditions: in vivo
# [30] = Oral bioavailability in monkey at 4.1 mg/kg; format: ADME, organism-based, Macaca mulatta; conditions: rhesus monkey, in vivo
# T1 sequence (P09874 whole entry): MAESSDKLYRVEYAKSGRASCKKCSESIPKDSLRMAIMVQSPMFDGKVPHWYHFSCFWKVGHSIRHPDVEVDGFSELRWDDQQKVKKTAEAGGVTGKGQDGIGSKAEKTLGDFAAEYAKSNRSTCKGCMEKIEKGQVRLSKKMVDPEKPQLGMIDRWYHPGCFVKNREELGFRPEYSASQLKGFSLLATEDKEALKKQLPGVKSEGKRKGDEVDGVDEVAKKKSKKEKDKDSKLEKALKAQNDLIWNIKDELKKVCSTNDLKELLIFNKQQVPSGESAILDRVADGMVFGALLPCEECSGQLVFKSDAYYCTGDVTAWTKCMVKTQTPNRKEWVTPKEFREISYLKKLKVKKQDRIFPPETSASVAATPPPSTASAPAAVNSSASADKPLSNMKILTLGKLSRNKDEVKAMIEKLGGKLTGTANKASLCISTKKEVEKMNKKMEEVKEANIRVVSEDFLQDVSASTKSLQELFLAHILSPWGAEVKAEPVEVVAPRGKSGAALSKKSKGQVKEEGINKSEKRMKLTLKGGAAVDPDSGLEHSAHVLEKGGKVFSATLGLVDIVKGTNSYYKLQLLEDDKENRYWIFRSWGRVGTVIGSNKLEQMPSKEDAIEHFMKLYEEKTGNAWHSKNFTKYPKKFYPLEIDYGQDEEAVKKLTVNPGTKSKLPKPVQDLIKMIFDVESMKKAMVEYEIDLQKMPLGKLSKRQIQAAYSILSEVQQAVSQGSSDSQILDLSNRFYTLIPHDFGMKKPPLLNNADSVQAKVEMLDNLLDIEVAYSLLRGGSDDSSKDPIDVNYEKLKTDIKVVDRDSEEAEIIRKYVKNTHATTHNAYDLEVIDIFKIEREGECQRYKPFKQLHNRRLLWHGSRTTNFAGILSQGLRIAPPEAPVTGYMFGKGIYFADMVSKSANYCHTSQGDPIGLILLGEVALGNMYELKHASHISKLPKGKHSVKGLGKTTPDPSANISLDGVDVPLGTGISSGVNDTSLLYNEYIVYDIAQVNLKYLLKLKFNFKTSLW
smiles,measurement,setting,value
NC(=O)c1cccc2[nH]cnc12,Ki,[1],240 nM
COC1CCC(c2nc3cccc(C(N)=O)c3[nH]2)CC1 (centres undefined),Ki,[1],44 nM
same,EC50,[2],210 nM
CN1CCCCC1c1nc2c(C(N)=O)cccc2[nH]1 (centres undefined),Ki,[1],29 nM
same,EC50,[2],30 nM
CC(C)N1CCC[C@H]1c1nc2c(C(N)=O)cccc2[nH]1,Ki,[1],20 nM
same,EC50,[2],15 nM
NC(=O)c1cccc2[nH]c(C3CCN(C4CCCC4)CC3)nc12,Ki,[1],6 nM
same,EC50,[2],5 nM
CC(C)N1CCCC(c2nc3cccc(C(N)=O)c3[nH]2)C1 (centres undefined),Cmax,[3],800 ng/mL
same,half-life,[4],0.4 h
same,bioavailability,[5],100%
same,Ki,[1],22 nM
same,EC50,[2],12 nM
same,AUC,[6],1200 ng·h/mL
CCCN1CC(c2nc3c(C(N)=O)cccc3[nH]2)C1,Ki,[1],17 nM
same,EC50,[2],16 nM
CCCN1CCC(c2nc3cccc(C(N)=O)c3[nH]2)CC1,Vd,[7],10.7 L/kg
same,bioavailability,[8],48%
same,solubility,[9],6000 µg/mL
same,Cmax,[3],400 ng/mL
same,half-life,[4],1.2 h
same,half-life,[10],1.7 h
same,half-life,[11],2.7 h
same,half-life,[12],1.2 h
same,Cmax,[13],1000 ng/mL
same,fraction unbound,[14],0.43
same,Vd,[15],9.1 L/kg
same,bioavailability,[5],63%
same,Ki,[1],8 nM
same,clearance,[16],88.3 mL/min/kg
same,clearance,[17],33.3 mL/min/kg
same,Ki,[18],5 nM
same,AUC,[19],3700 ng·h/mL
same,EC50,[2],3 nM
same,clearance,[20],15 mL/min/kg
same,AUC,[21],700 ng·h/mL
same,Vd,[22],4.9 L/kg
same,Vd,[23],3.6 L/kg
same,AUC,[24],700 ng·h/mL
same,half-life,[25],2.6 h
same,Cmax,[26],200 ng/mL
same,AUC,[6],1200 ng·h/mL
same,Cmax,[27],800 ng/mL
same,bioavailability,[28],82%
same,clearance,[29],48.3 mL/min/kg
same,bioavailability,[30],32%
CC(C)N1CCC(c2nc3c(C(N)=O)cccc3[nH]2)CC1,Ki,[1],7 nM
same,Ki,[18],2 nM
same,EC50,[2],4 nM
NC(=O)c1cccc2[nH]c(C3CCN(CCc4ccccc4)C3)nc12 (centres undefined),Cmax,[3],700 ng/mL
same,half-life,[4],0.8 h
same,bioavailability,[5],89%
same,EC50,[2],6 nM
same,AUC,[6],1300 ng·h/mL
CN1CCCC(c2nc3c(C(N)=O)cccc3[nH]2)C1 (centres undefined),Ki,[1],30 nM
same,EC50,[2],15 nM
CN1CCC(c2nc3cccc(C(N)=O)c3[nH]2)CC1,Ki,[1],19 nM
same,EC50,[2],9 nM
N#Cc1ccc(N2CCC(c3nc4c(C(N)=O)cccc4[nH]3)CC2)cc1,Ki,[1],3 nM
same,EC50,[2],21 nM
CCN(CC)CCN1CCC(c2nc3cccc(C(N)=O)c3[nH]2)CC1,Ki,[1],31 nM
same,EC50,[2],94 nM
NC(=O)c1cccc2[nH]c(C3CNCCN3)nc12 (centres undefined),Ki,[1],26 nM
same,EC50,[2],> 1000 nM
CN(C)S(=O)(=O)N1CCC(c2nc3c(C(N)=O)cccc3[nH]2)CC1,Ki,[1],28 nM
same,EC50,[2],170 nM
CC(C)N1CCC(c2nc3c(C(N)=O)cc(Cl)cc3[nH]2)CC1,Cmax,[3],300 ng/mL
same,half-life,[4],1.4 h
same,bioavailability,[5],100%
same,Ki,[1],18 nM
same,EC50,[2],9 nM
same,AUC,[6],1700 ng·h/mL
NC(=O)c1cccc2nc([C@@H]3CCC(=O)N3)[nH]c12,Ki,[18],3 nM
CC(=O)N1CCC(c2nc3cccc(C(N)=O)c3[nH]2)CC1,Ki,[1],59 nM
NC(=O)c1cccc2[nH]c(C3CCNCC3)nc12,Ki,[1],5 nM
same,EC50,[2],> 1000 nM
CC(C)N1CCC1c1nc2c(C(N)=O)cccc2[nH]1 (centres undefined),Ki,[1],110 nM
NC(=O)c1cccc2[nH]c(C3CCCNC3)nc12 (centres undefined),Cmax,[3],200 ng/mL
same,half-life,[4],2 h
same,bioavailability,[5],26%
same,Ki,[1],11 nM
same,EC50,[2],24 nM
same,AUC,[6],1000 ng·h/mL
NC(=O)c1cccc2[nH]c([C@H]3CCCN3)nc12,Cmax,[3],1800 ng/mL
same,half-life,[4],1.2 h
same,bioavailability,[5],100%
same,AUC,[6],3400 ng·h/mL
CCCN1CCC(c2nc3c(C(N)=O)cccc3[nH]2)C1 (centres undefined),Ki,[1],8 nM
same,EC50,[2],3 nM
NC(=O)c1cccc2[nH]c(C3CCN3)nc12 (centres undefined),EC50,[2],200 nM
CC(C)N1CCC[C@@H]1c1nc2cccc(C(N)=O)c2[nH]1,Ki,[1],21 nM
same,EC50,[2],12 nM
CC(C)N1CCCCC1c1nc2c(C(N)=O)cccc2[nH]1 (centres undefined),Ki,[1],45 nM
same,EC50,[2],13 nM
CN1CCC[C@@H]1c1nc2c(C(N)=O)cccc2[nH]1,Cmax,[3],30 ng/mL
same,half-life,[4],0.1 h
same,bioavailability,[5],25%
same,AUC,[6],40 ng·h/mL
CC(C)N1CCCC(c2nc3cccc(C(N)=O)c3[nH]2)CC1 (centres undefined),Ki,[1],5 nM
same,EC50,[2],6 nM
CN1CCN(C)C(c2nc3cccc(C(N)=O)c3[nH]2)C1 (centres undefined),Ki,[1],35 nM
same,EC50,[2],97 nM
CCCN1CCC(c2nc3c(C(N)=O)cccc3n2C)CC1,Ki,[1],34 nM
same,EC50,[2],21 nM
NC(=O)c1cccc2[nH]c(C3CCN(S(=O)(=O)c4ccccc4)CC3)nc12,Ki,[1],27 nM
same,Ki,[18],24 nM
same,EC50,[2],> 1000 nM
NC(=O)c1cccc2[nH]c(C3CNC3)nc12,Ki,[18],11 nM
